From ChEMBL document CHEMBL2203042, “Novel bivalent ligands for D2/D3 dopamine receptors: Significant co-operative gain in D2 affinity and potency” (ACS Med Chem Lett, 2012)

Tests used:
Rattus norvegicus = organism: Rattus norvegicus; assay: Selectivity ratio of Ki for rat cloned dopamine D2L receptor to Ki for rat cloned dopamine D3 receptor
D(3) dopamine receptor = D(3) dopamine receptor (Rattus norvegicus, UniProt P19020); assay: Displacement of [3H]spiperone from rat cloned dopamine D3 receptor expressed in HEK-293 cells by competition binding assay; assay type: cell-based, HEK293
D(3) dopamine receptor, sequence (P19020 whole entry): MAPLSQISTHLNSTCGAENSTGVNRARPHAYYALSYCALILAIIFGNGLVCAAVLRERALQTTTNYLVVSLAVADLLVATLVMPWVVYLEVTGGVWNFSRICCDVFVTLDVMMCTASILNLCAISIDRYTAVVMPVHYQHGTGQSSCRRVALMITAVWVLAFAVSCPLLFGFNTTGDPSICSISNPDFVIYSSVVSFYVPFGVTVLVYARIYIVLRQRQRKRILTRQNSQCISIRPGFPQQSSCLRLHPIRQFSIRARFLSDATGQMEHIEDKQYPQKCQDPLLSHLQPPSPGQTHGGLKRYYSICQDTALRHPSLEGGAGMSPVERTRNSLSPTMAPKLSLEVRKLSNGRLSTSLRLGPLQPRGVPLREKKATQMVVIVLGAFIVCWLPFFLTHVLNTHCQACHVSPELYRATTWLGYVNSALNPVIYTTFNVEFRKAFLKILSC

D(2) dopamine receptor = D(2) dopamine receptor (Rattus norvegicus, UniProt P61169); assay: Displacement of [3H]spiperone from rat cloned dopamine D2L receptor expressed in HEK-293 cells by competition binding assay; assay type: cell-based, HEK293
D(2) dopamine receptor, sequence (P61169 whole entry): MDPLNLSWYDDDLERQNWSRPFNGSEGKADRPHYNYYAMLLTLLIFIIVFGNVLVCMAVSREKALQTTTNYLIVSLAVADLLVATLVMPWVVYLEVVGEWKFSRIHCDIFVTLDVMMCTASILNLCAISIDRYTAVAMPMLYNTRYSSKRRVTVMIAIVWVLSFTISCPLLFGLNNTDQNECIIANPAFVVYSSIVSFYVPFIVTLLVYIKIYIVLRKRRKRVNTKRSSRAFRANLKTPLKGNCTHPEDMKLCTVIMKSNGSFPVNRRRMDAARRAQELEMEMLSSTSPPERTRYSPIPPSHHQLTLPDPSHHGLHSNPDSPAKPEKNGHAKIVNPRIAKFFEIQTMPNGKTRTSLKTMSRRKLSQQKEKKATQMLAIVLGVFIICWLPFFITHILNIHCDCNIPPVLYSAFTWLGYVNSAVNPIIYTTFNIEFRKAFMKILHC

Work on `CCCN(CCCCCCCCCCCCN(CCC)[C@H]1CCc2c(O)cccc2C1)[C@H]1CCc2c(O)cccc2C1` yielded a Ratio Ki (Rattus norvegicus) of 1, a Ki (D(3) dopamine receptor) of 10 nM and a Ki (D(2) dopamine receptor) of 11 nM.

Work on `CCCN(CCCCCCN(CCC)[C@H]1CCc2c(O)cccc2C1)[C@H]1CCc2c(O)cccc2C1` yielded a Ratio Ki (Rattus norvegicus) of 2.7, a Ki (D(3) dopamine receptor) of 2.2 nM and a Ki (D(2) dopamine receptor) of 5.9 nM.

With `CCCN(CCCCCCCCCCCCCCN(CCC)[C@H]1CCc2c(O)cccc2C1)[C@H]1CCc2c(O)cccc2C1` the Ratio Ki (Rattus norvegicus) was 1.7, the Ki (D(3) dopamine receptor) was 31 nM and the Ki (D(2) dopamine receptor) was 55 nM.

`CCCN(CCCCN(CCC)[C@H]1CCc2c(O)cccc2C1)[C@H]1CCc2c(O)cccc2C1` was tested, and the Ratio Ki (Rattus norvegicus) was 17, the Ki (D(3) dopamine receptor) was 4 nM and the Ki (D(2) dopamine receptor) was 70 nM.

Molecule `CCCCCCCCCN(CCC)[C@H]1CCc2c(O)cccc2C1` has a Ratio Ki (Rattus norvegicus) of 9.4, a Ki (D(3) dopamine receptor) of 7.3 nM and a Ki (D(2) dopamine receptor) of 69 nM.

With `CCCN(CCN(CCC)[C@H]1CCc2c(O)cccc2C1)[C@H]1CCc2c(O)cccc2C1` the Ratio Ki (Rattus norvegicus) was 14, the Ki (D(3) dopamine receptor) was 1.1 nM and the Ki (D(2) dopamine receptor) was 16 nM.

With `CCCN(CCCCCCCCCc1ccccc1)[C@H]1CCc2c(O)cccc2C1` the Ratio Ki (Rattus norvegicus) was 6.1, the Ki (D(3) dopamine receptor) was 23 nM and the Ki (D(2) dopamine receptor) was 140 nM.

For `CCCN(CCCCCCCN(CCC)[C@H]1CCc2c(O)cccc2C1)[C@H]1CCc2c(O)cccc2C1`, the Ratio Ki (Rattus norvegicus) was 3.6, the Ki (D(3) dopamine receptor) was 1.1 nM and the Ki (D(2) dopamine receptor) was 3.9 nM.

Molecule `CCCN(CCCCCN(CCC)[C@H]1CCc2c(O)cccc2C1)[C@H]1CCc2c(O)cccc2C1` has a Ratio Ki (Rattus norvegicus) of 21, a Ki (D(3) dopamine receptor) of 3.6 nM and a Ki (D(2) dopamine receptor) of 75 nM.
